From publication PMC10048095, “Sol-Gel Films Doped with Enzymes and Banana Crude Extract as Sensing Materials for Spectrophotometric Determination” (Gels, 2023)

Tests used:
Mushroom tyrosinase (MT) = test system: T1, Mushroom tyrosinase (MT); conditions: read-out: KM, mM / Solution; free enzyme in solution; pH 6.0 buffer; air oxygen
T1 construct: gene PPO3

[1] = target: T2, Horseradish peroxidase (HRP) (Armoracia rusticana, UniProt P00433); test: absorbance at […] nm, initial rates; type: biochemical; conditions: H2O2 as co-substrate; enzyme in solution and in sol-gel films; pH 6.0
T2 construct: gene PRXC1A
T2 sequence (P00433 31-338): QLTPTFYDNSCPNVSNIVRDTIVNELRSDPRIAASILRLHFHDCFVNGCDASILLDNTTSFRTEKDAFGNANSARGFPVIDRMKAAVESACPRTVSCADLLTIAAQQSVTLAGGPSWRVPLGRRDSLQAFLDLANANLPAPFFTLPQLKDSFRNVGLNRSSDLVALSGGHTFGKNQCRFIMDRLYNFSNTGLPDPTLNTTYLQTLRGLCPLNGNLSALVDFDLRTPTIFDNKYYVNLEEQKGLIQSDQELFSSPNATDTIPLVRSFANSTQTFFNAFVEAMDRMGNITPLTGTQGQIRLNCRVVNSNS

SMILES	Km (Mushroom tyrosinase (MT))	absorbance at 650 nm, initial rates [1]
O=C(O)/C=C/c1ccc(O)c(O)c1 [Caffeic acid]	1.1 mM	–
Cc1cc(-c2cc(C)c(N)c(C)c2)cc(C)c1N [3,3′,5,5′-tetramethylbenzidine]	–	hydrogen peroxide reduction with TMB oxidation
